Assay results published in article PMC3930709, “Selective Activation of hTRPV1 by N-Geranyl Cyclopropylcarboxamide, an Amiloride-Insensitive Salt Taste Enhancer” (PLoS ONE, 2014).

Legend:
hTRPA1 [1] = target: T1, hTRPA1 (Homo sapiens, UniProt O75762); assay: Ca2+ imaging (Fura-2 AM) of hTRPA1-expressing Flp-In 293 cells; assay type: cell-based; details: RR 30 µM, HC-030031 100 µM
T1 construct: expressed in transfected cells
Method: Flp-In 293 cell lines stably expressing hTRPA1constructed as previously reported was a gift from the professor […] at University of Tokyo. The hTRPA1-expressing cells were cultured in DMEM containing 10% FBS and 0.02% hygromycin B (Invitrogen). Flp-In 293 cell lines were maintained in DMEM containing 10% FBS. All cells were incubated at 37°C in a humidified atmosphere of 5% CO2. […] Mock-transfected HEK293T cells, hTRPV1-expressing HEK293T cells, non-hTRPA1-expressing Flp-In 293 cells, and hTRPA1-expressing Flp-In 293 cells grown in 96-well black-wall plates were rinsed with assay buffer (130 mM NaCl, 10 mM glucose, 5 mM KCl, 2 […]2, 1.2 mM MgCl2, and 10 mM HEPES, pH 7.4) and loaded with 5 μM Fura-2 AM (Invitrogen) for 30 min at 27°C. The cells were washed with assay buffer and treated with ligands. […] The fluorescence intensities of Fura-2 excited at 340 and 380 nm were simultaneously measured at 510 nm using a computer-controlled filter changer (Lambda DG4; Sutter, San Rafael, CA, USA), an Andor Luca CCD camera (Andor Technology, Belfast, UK), and an inverted fluorescence microscope (IX-71; Olympus, Tokyo, Japan). Intracellular calcium images were recorded every 3-s for 60-s and analyzed using MetaFluor software (Molecular Devices, Sunnyvale, CA, USA).

hTRPA1 [2] = target: T1, hTRPA1; assay: Whole-cell patch clamp recording, cells stably expressing hTRPA1; assay type: cell-based
Method: (§1) Flp-In 293 cell lines stably expressing hTRPA1constructed as previously reported was a gift from the professor Takumi Misaka at University of Tokyo. The hTRPA1-expressing cells were cultured in DMEM containing 10% FBS and 0.02% hygromycin B (Invitrogen). Flp-In 293 cell lines were maintained in DMEM containing 10% FBS. All cells were incubated at 37°C in a humidified atmosphere of 5% CO2.
(§2) The whole-cell configuration was used to voltage-clamp at room temperature (22–25°C). Electrodes pulled from glass micropipette capillaries (Sutter Instrument) had resistances of 2–2.5 MΩ, and series resistance errors were compensated >60%. Fast and slow capacitances were compensated before the application of test-pulse. Recordings were performed using aHEKAEPC-10 amplifier with pulse software (HEKA Elektronik). The pipette solution contained: 140 mM KCl, 5 mM MgCl2, 10 mM HEPES, 0.1 mM 1,2-bis(2-aminophenoxy) ethane N,N,N’,N’-tetraacetic acid(BAPTA), 3 mM Na2ATP, and 0.1 mM Na3GTP, adjusted to pH 7.4 with KOH. The external Ringer’s solution used for recording TRPV1 and TRPA1 currents contained: 150 mM NaCl, 5 mM KCl, 1 mM MgCl2, 2 mM EGTA, 10 mM Glucose, and 10 mM HEPES, adjusted to pH 7.4 with NaOH. TRPV1 and TRPA1 currents were recorded by holding the cell at −80 mV. The external Ringer’s solution used for recording ASIC current contained: 160 mM NaCl, 5 mM KCl, 1 mM MgCl2, 2 mM CaCl2, and 10 mM HEPES, adjusted to pH 7.4 with tetramethylammonium hydroxide. For acidic solution of pH 6.0, HEPES was replaced with MES. ASIC currents were recorded by holding the cell at −70 mV. Reagents were obtained as follows: BAPTA, Na2ATP, Na3GTP, EGTA, and tetramethylammonium hydroxide (Sigma), HEPES (Calbiochem), MES (Alfa Aesar), and other chemicals (Merck).

hTRPA1 [3] = target: T1, hTRPA1; assay: Measurement of Ca2+ influx (Fluo-4 AM, FlexStation III) in hTRPA1-expressing cells; assay type: cell-based; details: for block of NGCC activity on hTRPA1-expressing cells (dose-response): RR 30 µM, HC-030031 100 µM; for block of AITC activity on hTRPA1-expressing cells (dose-response): RR 30 µM: below 30 µM AITC, HC-030031 100 µM: below 10 µM AITC
Method: as §1
(§3) The ligand-induced changes on cytosolic Ca^2+ level were monitored by a FlexStation III microplate reader (Molecular Devices). Fluo-4 AM (5 µM, Molecular Probes, Eugene, OR, USA) in assay buffer was loaded to the cells in 96-well black-wall plates for 30 min at 27°C. After dye treatment, each chemical was added to each well at 17 s and changes on intracellular Ca^2+ level were monitored by relative fluorescence units (ΔRFU, Ex = 485 nm; Em = 516 nm) for 120 s. […] The responses from at least three wells receiving the same stimulus were averaged. Plots of amplitude versus concentration were fitted using the Hill equation.

hTRPV1 [4] = target: T2, hTRPV1 (Homo sapiens, UniProt Q8NER1); assay: Measurement of Ca2+ influx (Fluo-4 AM, FlexStation III) in hTRPV1-expressing cells; assay type: cell-based; details: RR 30 µM or CPZ 1 µM added with agonist
T2 construct: expressed in transfected cells; host or cells: HEK293T
Method: as §3, with “hTRPV1 was constructed by amplification of the hTRPV1 region (NCBI accession number: NG_029716.1) and cloned into pEAK10 vector (Edge Biosystems, Gaithersburg, MD, USA). The hTRPV1 construct was amplified by PCR and the nucleotide sequence of the hTRPV1 gene was confirmed by sequencing with an ABI 3130 DNA genetic analyzer (Applied Biosystems, Foster City, CA, USA). […] After 6 h, transfected cells were seeded onto 96-well black-wall plate (BD Falcon Labware, Franklin Lakes, NJ, USA) for 18–26 h prior to their use in an experiment. The ligand-induced” for “The ligand-induced”

hTRPV1 [5] = target: T2, hTRPV1; assay: Ca2+ imaging (Fura-2 AM) of hTRPV1-expressing HEK293T cells; assay type: cell-based; details: NGCC 30 µM; RR 30 µM, CPZ 1 µM
Method: hTRPV1 was constructed by amplification of the hTRPV1 region (NCBI accession number: NG_029716.1) and cloned into pEAK10 vector (Edge Biosystems, Gaithersburg, MD, USA). The hTRPV1 construct was amplified by PCR and the nucleotide sequence of the hTRPV1 gene was confirmed by sequencing with an ABI 3130 DNA genetic analyzer (Applied Biosystems, Foster City, CA, USA). […] After 6 h, transfected cells were seeded onto 96-well black-wall plate (BD Falcon Labware, Franklin Lakes, NJ, USA) for 18-26 h prior to their use in an experiment. Mock-transfected HEK293T cells, hTRPV1-expressing HEK293T cells, non-hTRPA1-expressing Flp-In 293 cells, and hTRPA1-expressing Flp-In 293 cells grown in 96-well black-wall plates were rinsed with assay buffer (130 mM NaCl, 10 mM glucose, 5 mM KCl, 2 […]2, 1.2 mM MgCl2, and 10 mM HEPES, pH 7.4) and loaded with 5 μM Fura-2 AM (Invitrogen) for 30 min at 27°C. […] The fluorescence intensities of Fura-2 excited at 340 and 380 nm were simultaneously measured at 510 nm using a computer-controlled filter changer (Lambda DG4; Sutter, San Rafael, CA, USA), an Andor Luca CCD camera (Andor Technology, Belfast, UK), and an inverted fluorescence microscope (IX-71; Olympus, Tokyo, Japan). Intracellular calcium images were recorded every 3-s for 60-s and analyzed using MetaFluor software (Molecular Devices, Sunnyvale, CA, USA).

[6] = test system: Bz-insensitive NaCl CT response; design: method as in PMID 15146042; details: rat CT recordings, cited from earlier work
hTRPV1 [7] = target: T2, hTRPV1; assay: Whole-cell patch clamp recording, hTRPV1-expressing HEK293T cells; assay type: cell-based; details: capsaicin 100 nM; NGCC 10^3 µM; holding -80 mV
Method: Mouse ASIC1a (mASIC1a) was a kind gift from John A. Wemmie (University of Iowa, IA, USA). For electrophysiological experiments, HEK293T cells were cultured in DMEM supplemented with 10% FBS and 0.2% penicillin/streptomycin and transiently transfected using Lipofectamine 2000 (Invitrogen) with various cDNAs. For TRPV1 channel expression, cells were transfected with hTRPV1, for ASIC1a homomeric channel expression, cells were transfected with mASIC1a. When needed, 0.1–0.2 µg of cDNA encoding tetrameric red fluorescence protein (DsRed) was co-transfected with the cDNA as a marker for successfully transfected cells. For non-transfected cells, cells were transfected with 0.1–0.2 µg of cDNA encoding DsRed alone. The next day, cells were plated onto poly-L-lysine-coated coverslip chips, and fluorescent cells were studied within 1–2 days.
as §2

T1 sequence (O75762 whole entry): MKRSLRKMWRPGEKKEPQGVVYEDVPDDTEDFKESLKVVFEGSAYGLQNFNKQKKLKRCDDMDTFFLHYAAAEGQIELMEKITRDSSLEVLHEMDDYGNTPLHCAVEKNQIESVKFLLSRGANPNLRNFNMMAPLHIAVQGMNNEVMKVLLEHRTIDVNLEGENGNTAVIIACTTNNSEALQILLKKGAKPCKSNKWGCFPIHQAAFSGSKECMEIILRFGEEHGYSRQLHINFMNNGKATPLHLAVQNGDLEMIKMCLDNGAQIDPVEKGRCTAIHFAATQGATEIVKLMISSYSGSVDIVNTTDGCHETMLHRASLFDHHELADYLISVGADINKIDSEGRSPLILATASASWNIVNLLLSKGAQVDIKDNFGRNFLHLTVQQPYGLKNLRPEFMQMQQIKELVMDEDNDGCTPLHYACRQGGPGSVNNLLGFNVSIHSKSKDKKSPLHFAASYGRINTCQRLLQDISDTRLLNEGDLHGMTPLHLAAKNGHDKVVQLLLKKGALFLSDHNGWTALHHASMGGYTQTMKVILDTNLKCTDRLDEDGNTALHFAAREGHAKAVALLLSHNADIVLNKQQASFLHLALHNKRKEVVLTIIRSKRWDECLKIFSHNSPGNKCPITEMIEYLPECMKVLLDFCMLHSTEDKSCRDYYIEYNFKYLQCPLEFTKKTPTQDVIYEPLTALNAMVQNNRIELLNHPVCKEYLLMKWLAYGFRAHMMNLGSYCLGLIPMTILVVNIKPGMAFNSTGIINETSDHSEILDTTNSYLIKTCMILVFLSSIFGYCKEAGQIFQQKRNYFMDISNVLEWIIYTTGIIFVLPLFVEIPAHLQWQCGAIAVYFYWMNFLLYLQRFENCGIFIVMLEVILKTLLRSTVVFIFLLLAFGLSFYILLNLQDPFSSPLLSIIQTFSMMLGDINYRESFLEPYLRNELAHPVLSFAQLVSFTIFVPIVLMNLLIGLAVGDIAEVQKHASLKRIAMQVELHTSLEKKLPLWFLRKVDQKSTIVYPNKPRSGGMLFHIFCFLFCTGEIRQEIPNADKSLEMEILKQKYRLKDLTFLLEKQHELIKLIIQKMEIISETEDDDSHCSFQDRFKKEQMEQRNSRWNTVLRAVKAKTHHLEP
T2 sequence (Q8NER1 whole entry): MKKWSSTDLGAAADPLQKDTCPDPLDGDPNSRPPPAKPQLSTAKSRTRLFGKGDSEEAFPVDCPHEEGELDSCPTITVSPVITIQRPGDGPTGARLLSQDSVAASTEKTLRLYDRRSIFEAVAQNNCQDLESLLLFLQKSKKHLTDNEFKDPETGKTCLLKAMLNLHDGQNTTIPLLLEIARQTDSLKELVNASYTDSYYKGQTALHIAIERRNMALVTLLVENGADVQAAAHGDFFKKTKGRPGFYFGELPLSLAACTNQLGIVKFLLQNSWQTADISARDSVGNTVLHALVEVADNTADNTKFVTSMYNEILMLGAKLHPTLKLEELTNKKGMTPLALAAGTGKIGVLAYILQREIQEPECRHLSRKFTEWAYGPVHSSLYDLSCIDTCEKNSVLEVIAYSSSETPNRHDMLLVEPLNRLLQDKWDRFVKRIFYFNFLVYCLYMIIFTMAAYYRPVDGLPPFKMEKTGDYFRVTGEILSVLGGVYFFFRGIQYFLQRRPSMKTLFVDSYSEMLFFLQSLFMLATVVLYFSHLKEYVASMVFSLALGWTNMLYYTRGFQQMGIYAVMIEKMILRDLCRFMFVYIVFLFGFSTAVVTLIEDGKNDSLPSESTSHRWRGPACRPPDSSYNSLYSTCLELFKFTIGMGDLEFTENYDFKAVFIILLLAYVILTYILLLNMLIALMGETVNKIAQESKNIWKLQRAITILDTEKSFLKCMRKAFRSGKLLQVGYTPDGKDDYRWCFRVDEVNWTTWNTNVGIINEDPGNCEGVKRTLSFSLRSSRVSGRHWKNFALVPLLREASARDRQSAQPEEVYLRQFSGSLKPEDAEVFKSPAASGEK

Row | SMILES | inhibition of Ca2+ influx induced by 10 µM AITC and 30 µM NGCC in hTRPA1-expressing cells (hTRPA1 [1]) | block of NGCC-induced currents in hTRPA1-expressing cells (hTRPA1 [2]; HC-030031 100 µM) | block of AITC-induced current (hTRPA1 [2]; HC-030031 100 µM preincubation 30 seconds, AITC 100 µM) | normalized current density of NGCC-induced current after wash out of HC-030031 (hTRPA1 [2]; n = 4) | normalized current density of NGCC-induced current under HC-030031 (hTRPA1 [2]; n = 4) | block of NGCC activity on hTRPA1-expressing cells (dose-response) (hTRPA1 [3]) | block of AITC activity on hTRPA1-expressing cells (dose-response) (hTRPA1 [3]) | block of capsaicin- and NGCC-induced hTRPV1 activation (dose-response) (hTRPV1 [4]) | block of NGCC-induced Ca2+ influx in hTRPV1-expressing cells (hTRPV1 [5]) | effect on the NaCl+Bz CT response at 200 µM ([6]; 200 µM) | concentration giving the maximum increase in the NaCl+Bz CT response [6] | inward current in cells expressing hTRPV1 (hTRPV1 [7])
1 | CC(C)c1ccc(NC(=O)Cn2cnc3c2c(=O)n(C)c(=O)n3C)cc1 [HC-030031] | significantly inhibited | almost completely inhibited | partially blocked | 1.37±0.07 | 0.25±0.03 | almost blocked NGCC activity | partially blocked AITC activity |  |  |  |  | 
2 | N.N.N.N.N.N.N.N.N.N.N.N.N.N.[Cl-].[Cl-].[Cl-].[Cl-].[Cl-].[Cl-].[O-2].[O-2].[Ru+3].[Ru+3].[Ru+4] [RR, ruthenium red] | significantly inhibited |  |  |  |  | almost blocked NGCC activity | partially blocked AITC activity | inhibited capsaicin- and NGCC-induced hTRPV1 activation, but was less effective than CPZ | blocked NGCC activity to baseline levels |  |  | 
3 | COc1cc(CNC(=O)CCCC/C=C/C(C)C)ccc1O [capsaicin, Capsaicin] |  |  |  |  |  |  |  |  |  | completely inhibited | 40 µM | induced an inward current
